In US10913734B2, “Substituted aminothiazoles” (BARUCH S. BLUMBERG INSTITUTE, priority 2016, dated 2021) one finds CC50 and Selectivity data, which are given here for 28 compounds.

Some results are limits rather than exact numbers.

Tested on in the first data set: not listed separately
Kind of data set: MTT cell viability / cytotoxicity assay (CC50), 72 hours. The format is cell-based. Particulars: human, 72 hours incubation, concentration that reduces signal of viable cells by 50%, table title names Huh-7, THLE2 and PH5CH cells, cell line not given. An excerpt:
(§1) Huh-7 cells and derived from hepatocellular carcinoma cells, and were donated by Dr. Xuanyong Lu, (Drexel University College of Medicine, Doylestown, Pa.). THLE-2 were purchased from American Type Culture Collection (Manassas, Va.). PH5CH were donated by Dr. Masayuki Noguchi (University of Tsukuba, Ibaraki, Japan). THLE-2 and PH5CH have been immortalized through stable transfection of the SV40 large T antigen in normal hepatocytes, and are thus cell lines that are representative of normal hepatocytes rather than HCC cells. […] All cell lines were cultured and maintained in 5% CO2 at 37° C. Huh-7 were maintained in the culture media DMEM/F12 (Dulbecco's Modified Eagle Medium) with 10% Fetal bovine serum (FBS), 100 µg/mL penicillin, 100 units/mL streptomycin, and 50 µg/mL normocin. THLE-2 and PH5CH were maintained in the culture media Brochial Epithelial Growth Media (BEGM) with 10% FBS, 100 µg/mL penicillin, 100 units/mL streptomycin, with the following additives form the prepackaged kit: Bovine pituitary extract (BPE), insulin, hydrocortisone, retinoic acid, transferrin, triiodothyronine, supplemented with 5 ng/ml human epidermal growth factor and 70 ng/ml phosphoethanolamine (Lonza Walkersville Inc., Walkersville, Md.).
(§2) Huh7 cells were plated on 96-well plates at 2.0×10^4 cells per well to permit grow in the presence of compounds of the disclosure. Compounds of the disclosure were prediluted and transferred to cell plates by automated liquid handling. Cells were incubated with compounds of the disclosure for 72 hours, after which culture growth and viability were assessed by addition of 50 µg/mL 3-(4,5-Dimethyl-2-thiazolyl)-2,5-diphenyl-2H-tetrazolium bromide (MTT) incubation for 4 hours at 37° C. Solubilization buffer (0.01M HCl, 10% SDS) was added followed by incubation at 37° C. overnight. Absorbance was measured at 570 nm (reference 630 nm). Compound of the disclosure were tested in Huh7, THLE-2 and PH5CH, over eight-point dilutions in half-log steps, testing 50.0, 16.6, 5.0, 1.66, 0.5, 0.166, 0.05, and 0.016 µM in 0.5% DMSO, with each concentration in duplicate wells. […] Each compound was tested from 2 to 7 times in separate assay trials.
Turning to `CCOC(=O)Cc1sc(Nc2nccc(C)n2)nc1-c1ccccn1` [Entry 18], the cytotoxic concentration (CC50) (commonly the concentration at which the toxic effect on the cells reaches its halfway point) at 72 h is less than 50 µM. The same measure, in the same setting: the same measure for `CCOC(=O)c1sc(Nc2ncccn2)nc1-c1cnccn1` [Entry 20]: less than 50 µM.

`COCCOCN(c1ncccn1)c1nc(-c2cnccn2)c(C(=O)OC(C)C)s1` [Entry 29]: the CC50 at 72 h is not below 50 µM. On the same count and under the same terms, with `O=C(Nc1ncccn1)Nc1nc(-c2ccccn2)cs1` [Entry 3] the figure was not below 50 µM. Take `CCOC(=O)c1sc(NCc2ncccn2)nc1-c1ncccc1C` [Entry 5]: the CC50 at 72 h is not below 50 µM. Compound `CCOC(=O)c1sc(Nc2ncccn2)nc1-c1ccncn1` [Entry 23] had a CC50 at 72 h of less than 50 µM. On the same count and under the same terms, with `CC(C)OC(=O)c1sc(Nc2ncccn2)nc1-c1ncccn1` [Entry 19] the figure was less than 50 µM. Consider `CC(C)OC(=O)c1sc(N(COP(=O)(OC(C)(C)C)OC(C)(C)C)c2ncccn2)nc1-c1ccccn1` [Entry 27], for which the CC50 at 72 h is less than 50 µM. Still for that read-out and setting: the same measure for `CC(C)OC(=O)C1=C(c2ccncn2)NC(Nc2ncccn2)S1` (stereo not drawn) [Entry 22]: less than 50 µM. On the same count and under the same terms, with `CCOC(=O)CCc1sc(NCc2ncccn2)nc1-c1ccccn1` [Entry 10] the figure was not below 50 µM; with `CC(C)OC(=O)OCN(c1ncccn1)c1nc(-c2cnccn2)c(C(=O)OC(C)C)s1` [Entry 26], less than 50 µM. Same read-out and setting: with `CCOC(=O)Cc1sc(NCc2ncccn2)nc1-c1ccccn1` [Entry 16] the figure was less than 50 µM.

On to `CCOC(=O)c1sc(Nc2ncccn2)nc1-c1cc(C(F)(F)F)ccn1` [Entry 24], for which the CC50 at 72 h was less than 50 µM. On the same count and under the same terms, with `CCOCc1sc(NCc2ncccn2)nc1-c1ccccn1` [Entry 8] the figure was not below 50 µM; with `CC(C)OC(=O)c1sc(N(COP(=O)(OC(C)(C)C)OC(C)(C)C)c2ncccn2)nc1-c1cnccn1` [Entry 28], less than 50 µM; with `CCOCc1sc(Nc2ncccn2)nc1-c1ccccn1` [Entry 6], less than 50 µM.

`CCOC(=O)c1sc(NCc2ncccn2)nc1-c1ccccn1` [Entry 17] showed a CC50 at 72 h not below 50 µM. The same measure, in the same setting: with `CC(C)OC(=O)c1sc(Nc2ncccn2)nc1-c1ccccn1` [Entry 21] the figure was less than 50 µM; with `CCOC(=O)Cc1sc(Nc2ncccn2)nc1-c1ccccn1` [Entry 15], less than 50 µM.

`CCOC(=O)c1sc(Nc2nccc(C)n2)nc1-c1ncccc1C` [Entry 4]: the CC50 at 72 h is not below 50 µM.

`CC(C)OC(=O)c1sc(Nc2ncccn2)nc1-c1cnccn1` [Entry 25] returned a CC50 at 72 h of less than 50 µM.

`CCOC(=O)CCc1sc(Nc2ncccn2)nc1-c1ccccn1` [Entry 9] registered a CC50 at 72 h of less than 50 µM. As for `CCOCc1sc(Nc2nccc(C)n2)nc1-c1ccccn1` [Entry 7], the CC50 at 72 h was less than 50 µM. With `c1ccc(-c2csc(NCc3ncccn3)n2)nc1` [Entry 2], the CC50 at 72 h was less than 50 µM.

For the compound `O=C(O)CCc1sc(NCc2ncccn2)nc1-c1ccccn1` [Entry 13], the CC50 at 72 h is not below 50 µM. The same measure, in the same setting: with `O=C(O)CCc1sc(Nc2ncccn2)nc1-c1ccccn1` [Entry 11] the figure was less than 50 µM.

For the next data set, the system named is THLE2 and/or PH5CH (normal hepatocyte-derived) cell versus Huh7. The data set is described as follows: Selectivity of cytotoxicity: CC50 in normal hepatocyte-derived cells versus liver cancer derived cells (MTT assay). Format: cell-based. The conditions noted are these: ratio of CC50 between Huh7 and THLE2 and/or PH5CH (normal hepatocyte-derived) cell.
From the text: as §1
as §2, with “nm).” for “nm). Compound of the disclosure were tested in Huh7, THLE-2 and PH5CH, over eight-point dilutions in half-log steps, testing 50.0, 16.6, 5.0, 1.66, 0.5, 0.166, 0.05, and 0.016 µM in 0.5% DMSO, with each concentration in duplicate wells.”
Selectivity of toxicity in HCC-derived cells over normal liver-derived cells is important for the purposes of developing a therapy that specifically targets the cancer with low toxcity for the […]. The Selective Index (SI) is the ratio of CC50 in normal cells (THLE2 or PHSCH) over the CC50 in the liver cancer derived cells; thus, the higher the number, the lower the potential toxicity at an efficacious dose.
Selectivity in table 6 is defined as the ratio of CC50 between Huh7 and THLE2 and/or PH5CH (normal hepatocyte-derived) cell.
With `CCOC(=O)Cc1sc(Nc2nccc(C)n2)nc1-c1ccccn1` [Entry 18], the Selectivity is reported as not above 5.0.

With `CCOC(=O)c1sc(Nc2ncccn2)nc1-c1cnccn1` [Entry 20], the Selectivity was more than 5.0.

On to `O=C([O-])CCc1sc(Nc2ncccn2)nc1-c1ccccn1.[Na+]` [Entry 12], for which the Selectivity was not above 5.0. Take `COCCOCN(c1ncccn1)c1nc(-c2cnccn2)c(C(=O)OC(C)C)s1` [Entry 29]: the Selectivity was not above 5.0.

As for `O=C(Nc1ncccn1)Nc1nc(-c2ccccn2)cs1` [Entry 3], the Selectivity is recorded as not above 5.0. On the same count and under the same terms, with `CCOC(=O)c1sc(NCc2ncccn2)nc1-c1ncccc1C` [Entry 5] the figure was not above 5.0; with `CCOC(=O)c1sc(Nc2ncccn2)nc1-c1ccncn1` [Entry 23], more than 5.0; with `CC(C)OC(=O)c1sc(Nc2ncccn2)nc1-c1ncccn1` [Entry 19], more than 5.0.

As to `CC(C)OC(=O)c1sc(N(COP(=O)(OC(C)(C)C)OC(C)(C)C)c2ncccn2)nc1-c1ccccn1` [Entry 27], the Selectivity is given as more than 5.0. The same measure, in the same setting: with `CC(C)OC(=O)C1=C(c2ccncn2)NC(Nc2ncccn2)S1` (stereo not drawn) [Entry 22] the figure was more than 5.0; with `CCOC(=O)CCc1sc(NCc2ncccn2)nc1-c1ccccn1` [Entry 10], not above 5.0. The same measure, in the same setting: the same measure for `CC(C)OC(=O)OCN(c1ncccn1)c1nc(-c2cnccn2)c(C(=O)OC(C)C)s1` [Entry 26]: more than 5.0. As for `CCOC(=O)Cc1sc(NCc2ncccn2)nc1-c1ccccn1` [Entry 16], the Selectivity was not above 5.0. The same measure, in the same setting: with `O=C([O-])CCc1sc(NCc2ncccn2)nc1-c1ccccn1.[Na+]` [Entry 14] the figure was not above 5.0. `CCOC(=O)c1sc(Nc2ncccn2)nc1-c1cc(C(F)(F)F)ccn1` [Entry 24]: the Selectivity is reported as more than 5.0. On the same count and under the same terms, with `CCOCc1sc(NCc2ncccn2)nc1-c1ccccn1` [Entry 8] the figure was not above 5.0; with `CC(C)OC(=O)c1sc(N(COP(=O)(OC(C)(C)C)OC(C)(C)C)c2ncccn2)nc1-c1cnccn1` [Entry 28], more than 5.0; with `CCOCc1sc(Nc2ncccn2)nc1-c1ccccn1` [Entry 6], more than 5.0. On the same count and under the same terms, the same measure for `CCOC(=O)c1sc(NCc2ncccn2)nc1-c1ccccn1` [Entry 17]: not above 5.0; for `CC(C)OC(=O)c1sc(Nc2ncccn2)nc1-c1ccccn1` [Entry 21]: more than 5.0; for `CCOC(=O)Cc1sc(Nc2ncccn2)nc1-c1ccccn1` [Entry 15]: more than 5.0. Consider `CCOC(=O)c1sc(Nc2nccc(C)n2)nc1-c1ncccc1C` [Entry 4], for which the Selectivity is listed as not above 5.0. `CC(C)OC(=O)c1sc(Nc2ncccn2)nc1-c1cnccn1` [Entry 25]: the Selectivity was more than 5.0. Take `CCOC(=O)CCc1sc(Nc2ncccn2)nc1-c1ccccn1` [Entry 9]: the Selectivity is on record as more than 5.0.

Take `CCOCc1sc(Nc2nccc(C)n2)nc1-c1ccccn1` [Entry 7]: the Selectivity is on record as not above 5.0.

In the case of `c1ccc(-c2csc(NCc3ncccn3)n2)nc1` [Entry 2], the Selectivity is on record as not above 5.0.

As to `O=C(O)CCc1sc(NCc2ncccn2)nc1-c1ccccn1` [Entry 13], the Selectivity was not above 5.0.

In the case of `O=C(O)CCc1sc(Nc2ncccn2)nc1-c1ccccn1` [Entry 11], the Selectivity is listed as not above 5.0.
